Assay results taken from the supplement of paper PMC10307832.

Tests used:
Test in all cases: relative viability (nuclei count vs DMSO), 5 days (fraction); higher = more cells survive
AZD8055 + Vorinostat = compound: COc1ccc(-c2ccc3c(N4CCOC[C@@H]4C)nc(N4CCOC[C@@H]4C)nc3n2)cc1CO [AZD8055] + O=C(CCCCCCC(=O)Nc1ccccc1)NO [Vorinostat] (partner 1 µM)
Outline: (§1)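 One day after seeding in 1536-well plates, lung cancer cell lines were dosed by pin tool. Dosing was either single-drug or a fixed anchor-drug dose plus five library-drug doses (not always all listed) in √10 steps. After 5 days, nuclei were stained in one fix-and-stain step and counted on 4× images, and relative viability is the nuclei count of treated wells over that of vehicle wells, given as the median of duplicate plates.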

AZD8055 + Alpelisib = compound: COc1ccc(-c2ccc3c(N4CCOC[C@@H]4C)nc(N4CCOC[C@@H]4C)nc3n2)cc1CO [AZD8055] + Cc1nc(NC(=O)N2CCC[C@H]2C(N)=O)sc1-c1ccnc(C(C)(C)C(F)(F)F)c1 [Alpelisib] (partner 2 µM)
Outline: as §1

AZD8055 + Linsitinib = compound: COc1ccc(-c2ccc3c(N4CCOC[C@@H]4C)nc(N4CCOC[C@@H]4C)nc3n2)cc1CO [AZD8055] + C[C@]1(O)C[C@@H](c2nc(-c3ccc4ccc(-c5ccccc5)nc4c3)c3c(N)nccn32)C1 [Linsitinib] (partner 1 µM)
Outline: as §1

AZD8055 + Navitoclax = compound: COc1ccc(-c2ccc3c(N4CCOC[C@@H]4C)nc(N4CCOC[C@@H]4C)nc3n2)cc1CO [AZD8055] + CC1(C)CCC(c2ccc(Cl)cc2)=C(CN2CCN(c3ccc(C(=O)NS(=O)(=O)c4ccc(N[C@H](CCN5CCOCC5)CSc5ccccc5)c(S(=O)(=O)C(F)(F)F)c4)cc3)CC2)C1 [Navitoclax] (partner 0.5 µM)
Outline: as §1

Row | Cell Line | relative viability (AZD8055 + Vorinostat; first compound 0.01 µM) | relative viability (AZD8055 + Vorinostat; first compound 0.03162 µM) | relative viability (AZD8055 + Vorinostat; first compound 0.1 µM) | relative viability (AZD8055 + Vorinostat; first compound 0.3162 µM) | relative viability (AZD8055 + Vorinostat; first compound 1 µM) | relative viability (AZD8055 + Alpelisib; first compound 0.01 µM) | relative viability (AZD8055 + Alpelisib; first compound 0.03162 µM) | relative viability (AZD8055 + Alpelisib; first compound 0.1 µM) | relative viability (AZD8055 + Alpelisib; first compound 0.3162 µM) | relative viability (AZD8055 + Alpelisib; first compound 1 µM) | relative viability (AZD8055 + Linsitinib; first compound 0.01 µM) | relative viability (AZD8055 + Linsitinib; first compound 0.03162 µM) | relative viability (AZD8055 + Linsitinib; first compound 0.1 µM) | relative viability (AZD8055 + Linsitinib; first compound 0.3162 µM) | relative viability (AZD8055 + Linsitinib; first compound 1 µM) | relative viability (AZD8055 + Navitoclax; first compound 0.01 µM) | relative viability (AZD8055 + Navitoclax; first compound 0.03162 µM) | relative viability (AZD8055 + Navitoclax; first compound 0.1 µM) | relative viability (AZD8055 + Navitoclax; first compound 0.3162 µM) | relative viability (AZD8055 + Navitoclax; first compound 1 µM)
1 | LU99A | 0.385 | 0.259 | 0.225 | 0.186 | 0.153 | 0.32 | 0.261 | 0.158 | 0.189 | 0.228 | 0.316 | 0.306 | 0.196 | 0.203 | 0.184 | 0.69 | 0.517 | 0.232 | 0.164 | 0.191
2 | NCI-H647 | 0.81 | 0.416 | 0.308 | 0.152 | 0.114 | 0.987 | 0.623 | 0.332 | 0.208 | 0.167 | 1.18 | 0.942 | 0.601 | 0.439 | 0.167 | 1.35 | 1.03 | 0.637 | 0.391 | 0.219
3 | A-427 | 0.928 | 0.868 | 0.849 | 0.6 | 0.535 | 1.22 | 0.999 | 0.939 | 0.674 | 0.519 | 1.13 | 0.95 | 0.927 | 0.783 | 0.547 | 0.987 | 0.837 | 0.598 | 0.376 | 0.315
4 | COR-L 105 | 0.865 | 0.766 | 0.805 | 0.516 | 0.421 | 0.975 | 0.737 | 0.798 | 0.271 | 0.315 | 0.833 | 0.941 | 0.5 | 0.315 | 0.297 | 0.914 | 0.961 | 0.596 | 0.358 | 0.39
5 | NCI-H441 | 0.985 | 0.72 | 0.534 | 0.346 | 0.246 | 0.678 | 0.42 | 0.444 | 0.331 | 0.315 | 0.515 | 0.337 | 0.346 | 0.203 | 0.33 | 0.748 | 0.955 | 0.464 | 0.334 | 0.251
6 | NCI-H2126 | 0.82 | 0.739 | 0.505 | 0.496 | 0.405 | 0.75 | 0.655 | 0.601 | 0.382 | 0.371 | 0.655 | 0.572 | 0.504 | 0.375 | 0.385 | 0.801 | 0.763 | 0.641 | 0.487 | 0.345
7 | HCC-44 | 1.12 | 1.22 | 1.07 | 0.735 | 0.803 | 0.573 | 0.507 | 0.417 | 0.271 | 0.295 | 0.565 | 0.506 | 0.298 | 0.198 | 0.226 | 0.985 | 0.891 | 0.617 | 0.41 | 0.448
8 | NCI-H460 | 1.02 | 0.629 | 0.498 | 0.0504 | 0.0551 | 0.314 | 0.195 | 0.148 | 0.0795 | 0.0574 | 0.555 | 0.213 | 0.206 | 0.0409 | 0.0438 | 1.19 | 0.892 | 0.523 | 0.121 | 0.0653
9 | SK-LU-1 | 0.745 | 0.701 | 0.605 | 0.393 | 0.292 | 1.03 | 0.643 | 0.384 | 0.687 | 0.342 | 0.941 | 0.798 | 0.877 | 0.491 | 0.321 | 1.16 | 0.788 | 1.23 | 0.526 | 0.332
10 | NCI-H322M | 0.85 | 0.839 | 0.8 | 0.511 | 0.538 | 0.696 | 0.0834 | 0.673 | 0.433 | 0.402 | 0.891 | 0.771 | 0.557 | 0.497 | 0.461 | 1.17 | 1.09 | 0.845 | 0.488 | 0.546
11 | EKVX | 0.68 | 0.729 | 0.519 | 0.422 | 0.366 | 0.94 | 0.834 | 0.587 | 0.34 | 0.401 | 1.05 | 0.947 | 0.604 | 0.384 | 0.24 | 1.08 | 1.04 | 0.797 | 0.512 | 0.413
12 | NCI-H1734 | 0.822 | 0.571 | 0.506 | 0.303 | 0.246 | 0.762 | 0.554 | 0.378 | 0.226 | 0.23 | 0.857 | 0.638 | 0.457 | 0.289 | 0.262 | 1.04 | 0.742 | 0.472 | 0.316 | 0.173
13 | NCI-H520 | 0.621 | 0.406 | 0.242 | 0.188 | 0.154 | 0.912 | 0.659 | 0.4 | 0.187 | 0.18 | 0.954 | 0.504 | 0.198 | 0.153 | 0.164 | 0.928 | 0.612 | 0.359 | 0.21 | 0.176
14 | EPLC-272H | 0.331 | 0.401 | 0.343 | 0.144 | 0.261 | 0.927 | 0.754 | 0.546 | 0.445 | 0.404 | 1.1 | 0.926 | 0.669 | 0.404 | 0.373 | 1.1 | 0.842 | 0.556 | 0.378 | 0.35
15 | UMC-11 | 0.453 | 0.282 | 0.258 | 0.233 | 0.21 | 1.06 | 0.737 | 0.549 | 0.232 | 0.22 | 0.995 | 0.884 | 0.539 | 0.251 | 0.266 | 0.295 | 0.277 | 0.248 | 0.173 | 0.134
16 | NCI-H1993 | 0.55 | 0.474 | 0.358 | 0.287 | 0.407 | 0.679 | 0.629 | 0.632 | 0.623 | 0.638 | 0.721 | 0.593 | 0.688 | 0.702 | 0.695 | 0.785 | 0.681 | 0.649 | 0.665 | 0.56
